# Experimental data: PubChem BioAssay (NCI)
#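 The compound was tested at five concentrations on cells cultured in 96-well plates, with a 48-hour exposure period. Here, GI50 denotes the concentration required for 50% inhibition of growth. TGI: total growth inhibition.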
# What was measured:
# Assay in all cases: DTP human tumour cell line panel, 48 h
# [1] = system: 786-0 renal
# [2] = system: A498 renal
# [3] = system: A549 NSCLC
# [4] = system: ACHN renal
# [5] = system: CAKI-1 renal
# [6] = system: CCRF-CEM leukemia
# [7] = system: COLO 205 colon
# [8] = system: DLD-1 colon
# [9] = system: DMS 273 small cell lung
# [10] = system: EKVX NSCLC
# [11] = system: HCC-2998 colon
# [12] = system: HCT-116 colon
# [13] = system: HCT-15 colon
# [14] = system: HL-60(TB) leukemia
# [15] = system: HOP-18 NSCLC
# [16] = system: HOP-62 NSCLC
# [17] = system: HOP-92 NSCLC
# [18] = system: HT29 colon
# [19] = system: IGROV1 ovarian
# [20] = system: K-562 leukemia
# [21] = system: KM12 colon
# [22] = system: KM20L2 colon
# [23] = system: LOX IMVI melanoma
# [24] = system: LXFL 529 NSCLC
# [25] = system: M14 melanoma
# [26] = system: M19-MEL melanoma
# [27] = system: MALME-3M melanoma
# [28] = system: MOLT-4 leukemia
# [29] = system: NCI-H226 lung
# [30] = system: NCI-H23 lung
# [31] = system: NCI-H460 lung
# [32] = system: NCI-H522 lung
# [33] = system: OVCAR-3 ovarian
# [34] = system: OVCAR-4 ovarian
# [35] = system: OVCAR-5 ovarian
# [36] = system: OVCAR-8 ovarian
# [37] = system: RXF 393 renal
# [38] = system: SF-268 CNS
# [39] = system: SF-295 CNS
# [40] = system: SF-539 CNS
# [41] = system: SK-MEL-2 melanoma
# [42] = system: SK-MEL-28 melanoma
# [43] = system: SK-MEL-5 melanoma
# [44] = system: SK-OV-3 ovarian
# [45] = system: SN12C renal
# [46] = system: SNB-19 CNS
# [47] = system: SNB-75 CNS
# [48] = system: SNB-78 CNS
# [49] = system: SR leukemia
# [50] = system: SW-620 colon
# [51] = system: TK-10 renal
# [52] = system: U251 CNS
# [53] = system: UACC-257 melanoma
# [54] = system: UACC-62 melanoma
# [55] = system: UO-31 renal
# [56] = system: XF 498 CNS
smiles,measurement,setting,value
C[CH2][Sn]([CH2]C)([O]C(=O)c1ccc(F)cc1)[O][Sn]([CH2]C)([CH2]C)[O]C(=O)c1ccc(F)cc1,GI50,[1],53.6 µM
same,TGI,[1],> 100 µM
same,GI50,[2],16.4 µM
same,TGI,[2],30 µM
same,GI50,[3],> 100 µM
same,TGI,[3],> 100 µM
same,GI50,[4],79.8 µM
same,TGI,[4],> 100 µM
same,GI50,[5],12.2 µM
same,TGI,[5],24.9 µM
same,GI50,[6],10.7 µM
same,TGI,[6],57.6 µM
same,GI50,[7],59.7 µM
same,TGI,[7],> 100 µM
same,GI50,[8],23.6 µM
same,TGI,[8],> 100 µM
same,GI50,[9],> 100 µM
same,TGI,[9],> 100 µM
same,GI50,[10],> 100 µM
same,TGI,[10],> 100 µM
same,GI50,[11],> 100 µM
same,TGI,[11],> 100 µM
same,GI50,[12],> 100 µM
same,TGI,[12],> 100 µM
same,GI50,[13],> 100 µM
same,TGI,[13],> 100 µM
same,GI50,[14],> 100 µM
same,TGI,[14],> 100 µM
same,GI50,[15],> 100 µM
same,TGI,[15],> 100 µM
same,GI50,[16],> 100 µM
same,TGI,[16],> 100 µM
same,GI50,[17],19.1 µM
same,TGI,[17],59 µM
same,GI50,[18],> 100 µM
same,TGI,[18],> 100 µM
same,GI50,[19],> 100 µM
same,TGI,[19],> 100 µM
same,GI50,[20],20.1 µM
same,TGI,[20],78.6 µM
same,GI50,[21],> 100 µM
same,TGI,[21],> 100 µM
same,GI50,[22],> 100 µM
same,TGI,[22],> 100 µM
same,GI50,[23],37.4 µM
same,TGI,[23],> 100 µM
same,GI50,[24],13 µM
same,TGI,[24],25.8 µM
same,GI50,[25],> 100 µM
same,TGI,[25],> 100 µM
same,GI50,[26],45.9 µM
same,TGI,[26],> 100 µM
same,GI50,[27],16.9 µM
same,TGI,[27],32 µM
same,GI50,[28],47.1 µM
same,TGI,[28],> 100 µM
same,GI50,[29],30.8 µM
same,TGI,[29],87.5 µM
same,GI50,[30],41 µM
same,TGI,[30],> 100 µM
same,GI50,[31],> 100 µM
same,TGI,[31],> 100 µM
same,GI50,[32],3.01 µM
same,TGI,[32],12.4 µM
same,GI50,[33],> 100 µM
same,TGI,[33],> 100 µM
same,GI50,[34],> 100 µM
same,TGI,[34],> 100 µM
same,GI50,[35],> 100 µM
same,TGI,[35],> 100 µM
same,GI50,[36],> 100 µM
same,TGI,[36],> 100 µM
same,GI50,[37],15.7 µM
same,TGI,[37],29.9 µM
same,GI50,[38],67.4 µM
same,TGI,[38],> 100 µM
same,GI50,[39],> 100 µM
same,TGI,[39],> 100 µM
same,GI50,[40],67.5 µM
same,TGI,[40],> 100 µM
same,GI50,[41],28.5 µM
same,TGI,[41],83.3 µM
same,GI50,[42],33.9 µM
same,TGI,[42],> 100 µM
same,GI50,[43],> 100 µM
same,TGI,[43],> 100 µM
same,GI50,[44],> 100 µM
same,TGI,[44],> 100 µM
same,GI50,[45],67.2 µM
same,TGI,[45],> 100 µM
same,GI50,[46],> 100 µM
same,TGI,[46],> 100 µM
same,GI50,[47],58.5 µM
same,TGI,[47],> 100 µM
same,GI50,[48],21.1 µM
same,TGI,[48],50.4 µM
same,GI50,[49],41.1 µM
same,TGI,[49],> 100 µM
same,GI50,[50],22.8 µM
same,TGI,[50],45.5 µM
same,GI50,[51],23.5 µM
same,TGI,[51],62.3 µM
same,GI50,[52],29.8 µM
same,TGI,[52],> 100 µM
same,GI50,[53],41.1 µM
same,TGI,[53],> 100 µM
same,GI50,[54],> 100 µM
same,TGI,[54],> 100 µM
same,GI50,[55],> 100 µM
same,TGI,[55],> 100 µM
same,GI50,[56],16.4 µM
same,TGI,[56],31 µM
